Source: US3997506A (priority 1974, dated 1976)
Where two headings read alike, the source gives them in different places.

Key:
in vitro = assay type: cell-based, human; details: human, leucocytes, Culture II, read-out: % of dead cells
Method: (§1) The cytotoxicity has been investigated on human leucocytes by means of the viability test with Trypan blue.
(§2) a. In a first experimentation cultures of leucocytes of a voluntary […] were prepared and caused to undergo incubation with phytohemagglutinin (PHA) and with different concentrations of colchicine or of its derivative (C1 = 2.5 μg/ml of culture, C3 = 10 μg/ml, C5 = 30 μg/ml, C6 = 50 μg/ml). Leucocytes only containing PHA served as controls.
(§3) After 3, 42, 68 and 72 hours of incubation a sample of each culture was contacted by a drop of Trypan blue and laid on a slide of a microscope. Then took place the counting of the dead cells (those with assumed an […] colour) and of all the cells present on the slide in order to obtain the ratio of the number of dead cells to the total number of cells. The results expressed as a rate in per cent are shown in the accompanying table 8.
(§4) b. After the experimentation which has just been described, the study of cytotoxicity has been continued with two other samples of human leucocytes still by means of the viability test with Trypan blue.
(§5) C1 = 2.5 μg/ml of culture
(§6) C6 = 50 μg/ml of culture;
(§7) and for the carboxy-1-adamantane fraction to:
(§8) C3 = 4.5 μg/ml of culture
(§9) C6 = 22.5 μg/ml of culture.
(§10) Leucocytes only containing phytohemagglutinin and others containing phytohemagglutinin and 50 μl of methanol served as controls.
(§11) The percentage of dead cells was determined after different numbers of hours of incubation.

human leucocytes [1] = assay: in vitro; assay type: cell-based; details: Cultures I and II
Method: as §1, §2, §3, §4, §5, §6, §7, §8, §9, §10, §11

human leucocytes [2] = details: Table 11; for Count of leucocytes after 72 hours: Culture II
[3] = carboxy-1-adamantane C3 = 4.5 μg/ml
[4] = carboxy-1-adamantane C6 = 22.5 μg/ml

O=C(O)C12CC3CC(CC(C3)C1)C2 [carboxy-1-adamantane]
cytotoxicity at 23 h (in vitro; [3]): 18%
cytotoxicity at 23 h (in vitro; [4]): 14%
cytotoxicity at 46 h (in vitro; [3]): 12%
cytotoxicity at 46 h (in vitro; [4]): 10%
cytotoxicity at 72 h (in vitro; [3]): 25%
cytotoxicity at 72 h (in vitro; [4]): 25%
cytotoxicity, cultures I and II (in words) (human leucocytes [1]): no effect until 46 hours of incubation
Count of leucocytes after 72 hours (human leucocytes [2]; [3]): 215,000
Count of leucocytes after 72 hours (human leucocytes [2]; [4]): 230,000
number of leucocytes in absence or presence of substance (in words) (human leucocytes [2]; very approximative): remain substantially the same
